This passage reports CC50 results from patent US8268827B2, “Pyridazinone derivatives as PARP inhibitors” (Istituto di Ricerche di Biologia Molecolare P. Angeletti …, priority 2007, dated 2012).

Structures are written as SMILES. Counter-ions that a name gives are not always drawn.

For this assay, the system named is BRCA-1 silenced HeLa cells (HeLa shBRCA1-GFP). Briefly: Proliferation assay in BRCA-1 silenced HeLa cells. Particulars: Homo sapiens; BRCA1 silenced HeLa cells, 168 hours; read-out: CC50 in the BRCA1 silenced HeLa cells. The assay is classed as cell-based. The protocol: Proliferation Assay in BRCA-1 Silenced HeLa Cells
Compounds of the present invention were also tested in an anti-proliferative assay in matched pair BRCA1 wt and BRCA1-(shRNA) HeLa cells.
The assay is based on the ability of living cells to convert a redox dye (resazurin) into a fluorescent end product (resofurin). The amount of resofurin produced is directly proportional to the cell number.
HeLa shBRCA1-GFP—These are HeLa cells transduced at an MOI of 100 with a Lentivirus containing a shRNA against BRCA-1 and an expression cassette for GFP. BRCA-1 silencing is more than 80% as assessed by Taqman analysis and the cells stably express GFP.
HeLa THM-GFP—These are HeLa cells transduced at an MOI of 100 with a control vector not expressing any shRNA.
• Seed 300 cell/well in 96 wells viewplate black in 90 ul culture Medium*: • Incubate 4 hours at 37° C., 5% CO2 • Add 10 ul/well of 10× compound (5% DMSO in H2O) • Incubate for 168 hours at 37° C., 5% CO2 • Add 10 ul of Celltiter Blue solution (Promega, G8081) pre-diluted 1:1 in PBS1× • Incubate the mixture for 45′ at 37° C., 5% CO2 • Incubate 15′ at RT in the dark • Read plate at fluorimeter ex: 550 nm; em: 590 nm *Culture Medium: DMEM (GIBCO, 41966-029), 10% FCS (GIBCO, 10106-169), 0.1 mg/ml Penicillin-Streptomycin (GIBCO, 15140-114), 2 mM L-Glutamine (GIBCO, 3042190)
`Cc1c(Cc2ccc(F)c(C(=O)N3CC(=O)N4[C@@H](CCC[C@H]4C)C3)c2)n[nH]c(=O)c1C` (racemic) [Example 85, 6-{4-Fluoro-3-[(cis-6-methyl-4-oxooctahydro-2H-pyrido[1,2-a]pyrazin-2-yl)carbonyl]benzyl}-4,5-dimethyl-3-oxo-2,3-dihydropyridazin-1-ium trifluoroacetate]: the CC50 is under 50 nM. With `Cc1c(Cc2ccc(F)c(C(=O)N3CC(=O)N([C@H]4CCOC4)[C@H](C)C3)c2)n[nH]c(=O)c1C` (single isomer, unassigned) [75 (II4A)] the figure was 50 to 500 nM; with `Cc1c(Cc2ccc(F)c(C(=O)N3CC(=O)N([C@H]4CCOC4)[C@@H](C)C3)c2)n[nH]c(=O)c1C` (single isomer, unassigned) [75 (II4B)], under 50 nM. Consider `Cc1c(Cc2ccc(F)c(C(=O)N3CC(=O)N4[C@@H](CCC[C@@H]4C)C3)c2)n[nH]c(=O)c1C` (single isomer, unassigned) [86 (TT1)], for which the cytotoxic concentration (CC50) was under 50 nM. Turning to `Cc1c(Cc2ccc(F)c(C(=O)N3CC(=O)N4[C@H](CCC[C@H]4C)C3)c2)n[nH]c(=O)c1C` (single isomer, unassigned) [86 (TT2)], the CC50 is 50 to 500 nM. Regarding `C[C@H]1CCC[C@H]2CN(C(=O)c3cc(Cc4cc(C(F)(F)F)c(=O)[nH]n4)ccc3F)CC(=O)N21` (single isomer, unassigned) [88 (VV1)], the CC50 is under 50 nM. For `C[C@@H]1CCC[C@@H]2CN(C(=O)c3cc(Cc4cc(C(F)(F)F)c(=O)[nH]n4)ccc3F)CC(=O)N21` (single isomer, unassigned) [88 (VV2)], the CC50 was in the range of 50 to 500 nM. With `Cc1c(Cc2ccc(F)c(C(=O)N3CCN(c4ccccc4)C(=O)C3)c2)n[nH]c(=O)c1C` [Example 1, 6-{4-Fluoro-3-[(3-oxo-4-phenylpiperazin-1-yl)carbonyl]benzyl}-4,5-dimethyl-3-oxo-2,3-dihydropyridazin-1-ium trifluoroacetate], the cytotoxic concentration (CC50) was under 50 nM. The value for `Cc1c(Cc2ccc(F)c(C(=O)N3CCN(C4CCCCC4)C(=O)C3)c2)n[nH]c(=O)c1C` [Example 2, 6-{3-[(4-Cyclohexyl-3-oxopiperazin-1-yl)carbonyl]-4-fluorobenzyl}-4,5-dimethyl-3-oxo-2,3-dihydropyridazin-1-ium trifluoroacetate] was under 50 nM; that for `Cc1c(Cc2ccc(F)c(C(=O)N3CCN(C4CCCC4)C(=O)C3)c2)n[nH]c(=O)c1C` [Example 3, 6-{3-[(4-Cyclopentyl-3-oxopiperazin-1-yl)carbonyl]-4-fluorobenzyl}-4,5-dimethylpyridazin-3(2H)-one] was under 50 nM; that for `CCc1cc(Cc2ccc(F)c(C(=O)N3CCN(c4ccccc4)C(=O)C3)c2)n[nH]c1=O` [Example 5, 4-Ethyl-6-{4-fluoro-3-[(3-oxo-4-phenylpiperazin-1-yl)carbonyl]benzyl}pyridazin-3(2H)-one trifluoroacetate] was 50 to 500 nM. The value for `CCc1cc(Cc2ccc(F)c(C(=O)N3CCN(C4CCCCC4)C(=O)C3)c2)n[nH]c1=O` [Example 6, 6-{3-[(4-Cyclohexyl-3-oxopiperazin-1-yl)carbonyl]-4-fluorobenzyl}-4-ethylpyridazin-3(2H)-one trifluoroacetate] was 50 to 500 nM. For `Cc1c(Cc2ccc(F)c(C(=O)N3CCN(Cc4ccc(F)cc4)C(=O)C3)c2)n[nH]c(=O)c1C` [Example 8, 3-(4-Fluoro-3-{[4-(4-fluorobenzyl)-3-oxopiperazin-1-yl]carbonyl}benzyl)-4,5-dimethyl-6-oxo-1,6-dihydropyridazin-1-ium trifluoroacetate], the 50% cytotoxic concentration (CC50) is under 5000 nM. For the molecule `Cc1c(Cc2ccc(F)c(C(=O)N3CCN(c4cccc(Cl)c4)C(=O)C3)c2)n[nH]c(=O)c1C` [Example 9, 6-(3-{[4-(3-Chlorophenyl)-3-oxopiperazin-1-yl]carbonyl}-4-fluorobenzyl)-4,5-dimethyl-3-oxo-2,3-dihydropyridazin-1-ium trifluoroacetate], the CC50 was under 50 nM.

Regarding `Cc1c(Cc2ccc(F)c(C(=O)N3CCN(c4ccc(F)c(Cl)c4)C(=O)C3)c2)n[nH]c(=O)c1C` [Example 10, 6-(3-{[4-(3-Chloro-4-fluorophenyl)-3-oxopiperazin-1-yl]carbonyl}-4-fluorobenzyl)-4,5-dimethyl-3-oxo-2,3-dihydropyridazin-1-ium trifluoroacetate], the 50% cytotoxic concentration (CC50) is under 50 nM. On to `Cc1c(Cc2ccc(F)c(C(=O)N3CCN(c4ccc(F)c(F)c4)C(=O)C3)c2)n[nH]c(=O)c1C` [Example 11, 6-(3-{[4-(3,4-Difluorophenyl)-3-oxopiperazin-1-yl]carbonyl}-4-fluorobenzyl)-4,5-dimethyl-3-oxo-2,3-dihydropyridazin-1-ium trifluoroacetate], for which the half-maximal cytotoxic concentration (CC50) is under 50 nM.

For the molecule `Cc1c(Cc2ccc(F)c(C(=O)N3CCN(c4cc(F)cc(F)c4)C(=O)C3)c2)n[nH]c(=O)c1C` [Example 12, 6-(3-{[4-(3,5-Difluorophenyl)-3-oxopiperazin-1-yl]carbonyl}-4-fluorobenzyl)-4,5-dimethyl-3-oxo-2,3-dihydropyridazin-1-ium trifluoroacetate], the 50% cytotoxic concentration (CC50) was under 50 nM. On to `Cc1c(Cc2ccc(F)c(C(=O)N3CCN(c4ccc(Cl)cc4)C(=O)C3)c2)n[nH]c(=O)c1C` [Example 13, 6-(3-{[4-(4-Chlorophenyl)-3-oxopiperazin-1-yl]carbonyl}-4-fluorobenzyl)-4,5-dimethyl-3-oxo-2,3-dihydropyridazin-1-ium trifluoroacetate], for which the CC50 is under 50 nM. Turning to `Cc1c(Cc2ccc(F)c(C(=O)N3CCN(c4ccccc4Cl)C(=O)C3)c2)n[nH]c(=O)c1C` [Example 14, 6-(3-{[4-(2-Chlorophenyl)-3-oxopiperazin-1-yl]carbonyl}-4-fluorobenzyl)-4,5-dimethyl-3-oxo-2,3-dihydropyridazin-1-ium trifluoroacetate], the 50% cytotoxic concentration (CC50) was in the range of 50 to 500 nM. With `Cc1c(Cc2ccc(F)c(C(=O)N3CCN(c4ccccc4C(F)(F)F)C(=O)C3)c2)n[nH]c(=O)c1C` [Example 15, 6-[4-Fluoro-3-({3-oxo-4-[2-(trifluoromethyl)phenyl]piperazin-1-yl}carbonyl)benzyl]-4,5-dimethyl-3-oxo-2,3-dihydropyridazin-1-ium trifluoroacetate] the figure was under 50 nM. With `Cc1c(Cc2ccc(F)c(C(=O)N3CCN(c4ccc(F)cc4Cl)C(=O)C3)c2)n[nH]c(=O)c1C` [Example 16, 6-(3-{[4-(2-Chloro-4-fluorophenyl)-3-oxopiperazin-1-yl]carbonyl}-4-fluorobenzyl)-4,5-dimethyl-3-oxo-2,3-dihydropyridazin-1-ium trifluoroacetate], the CC50 was 50 to 500 nM.

Consider `CCN1CCN(C(=O)c2cc(Cc3n[nH]c(=O)c(C)c3C)ccc2F)CC1=O` [Example 17, 6-{3-[(4-Ethyl-3-oxopiperazin-1-yl)carbonyl]-4-fluorobenzyl}-4,5-dimethylpyridazin-3(2H)-one trifluoroacetate], for which the CC50 was 50 to 500 nM. In the case of `CCCCN1CCN(C(=O)c2cc(Cc3n[nH]c(=O)c(C)c3C)ccc2F)CC1=O` [Example 18, 6-{3-[(4-Butyl-3-oxopiperazin-1-yl)carbonyl]-4-fluorobenzyl}-4,5-dimethylpyridazin-3(2H)-one trifluoroacetate], the cytotoxic concentration (CC50) is 50 to 500 nM. Consider `Cc1cc(C)cc(CN2CCN(C(=O)c3cc(Cc4n[nH]c(=O)c(C)c4C)ccc3F)CC2=O)c1` [Example 19, 6-(3-{[4-(3,5-Dimethylbenzyl)-3-oxopiperazin-1-yl]carbonyl}-4-fluorobenzyl)-4,5-dimethylpyridazin-3(2H)-one trifluoroacetate], for which the half-maximal cytotoxic concentration (CC50) fell in the range of 50 to 500 nM. On to `COc1ccc(CN2CCN(C(=O)c3cc(Cc4n[nH]c(=O)c(C)c4C)ccc3F)CC2=O)cc1` [Example 20, 6-(4-Fluoro-3-{[4-(4-methoxybenzyl)-3-oxopiperazin-1-yl]carbonyl}benzyl)-4,5-dimethylpyridazin-3(2H)-one trifluoroacetate], for which the CC50 was in the range of 50 to 500 nM.

`Cc1c(Cc2ccc(F)c(C(=O)N3CCN(CCc4ccccc4)C(=O)C3)c2)n[nH]c(=O)c1C` [Example 21, 6-(4-Fluoro-3-{[3-oxo-4-(2-phenylethyl)piperazin-1-yl]carbonyl}benzyl)-4,5-dimethylpyridazin-3(2H)-one trifluoroacetate]: the 50% cytotoxic concentration (CC50) lay within 50 to 500 nM. For the molecule `COc1cccc(N2CCN(C(=O)c3cc(Cc4n[nH]c(=O)c(C)c4C)ccc3F)CC2=O)c1` [Example 22, 6-(4-Fluoro-3-{[4-(3-methoxyphenyl)-3-oxopiperazin-1-yl]carbonyl}benzyl)-4,5-dimethylpyridazin-3(2H)-one trifluoroacetate], the CC50 lay in the range of 50 to 500 nM. Consider `Cc1cc(C)cc(N2CCN(C(=O)c3cc(Cc4n[nH]c(=O)c(C)c4C)ccc3F)CC2=O)c1` [Example 23, 6-(3-{[4-(3,5-Dimethylphenyl)-3-oxopiperazin-1-yl]carbonyl}-4-fluorobenzyl)-4,5-dimethylpyridazin-3(2H)-one trifluoroacetate], for which the CC50 was in the range of 50 to 500 nM.
